According to patent publication US6262095A, “Use of tricyclic derivatives of 1,4-dihydro-1,4-dioxo-1H-naphthalene, novel compounds obtained and their application in theraphy” (Laboratoire Innothera, priority 1995, dated 2001):

Tests used:
[1] = tested on: jugular vein of the rat; assay: Contraction of rat jugular vein under depolarizing hyperpotassic conditions; format: cell-based; conditions: pH 7.4, read-out: ED50 (contraction)
Procedure: (§1) The contractile effects are measured in vitro under static conditions on vascular capacitance or resistance rings of saphenous, femoral, jugular, mesenteric, and caval veins . . . and on femoral, carotid, basilar, or mesenteric arteries, as well as the thoracic or abdominal aorta . . . in rats (Wistar, 200-250 g), rabbits (New Zealand, 2-2.5 kg), guinea pigs (Dunkin Hartley 250-300 g).
(§2) The rings are placed in a chamber for isolated organs (25 mL for capacitance vessels and 2.5 mL for resistance vessels according to Mulvany), and maintained under isometric conditions using two rigid threads inserted inside the vessel, avoiding causing damage to the endothelium. The vessels are bathed in a modified Krebs solution (in mM: NaCl=118; KCl=4.6; CaCl2 =2.5; MgSO4 =1.2; KH2 PO4 =1.17; NaHCO3 =25; glucose=11), continuously aerated using a gaseous mixture of 95% O2 and 5% Co2, at a pH=7.4, and regulated by thermostat at 37° C. The rings are adjusted to their optimal point as far as the tension-length relationship is concerned. […] The pharmacological studies are carried out after a few standardized preliminary contractile stimulations using a depolarizing solution (hyperpotassic type obtained by replacing NaCl with KCl in equimolar quantities), along with rinsings and periods of equilibration in a pure physiological solution. […]

[2] = tested on: saphenous vein in rabbits; assay: Potentiation of the contractile response of the rabbit saphenous vein to serotonin; format: cell-based
Procedure: as §1, §2

[3] = tested on: septic shock in rats; assay: Septic shock induced by LPS in rats; format: in vivo; conditions: rat, 28 mg/kg i.v. bolus 5 min before induction of septic shock, compared to control group
Procedure: The activity in septic shock is studied in rats after the induction of the shock by an intravenous injection in the bolus of a lipopolysaccharide endotoxin (LPS: 15 mg/kg) of E. col, in a method similar to that described by Terashita et al., Eur. J. Pharmacol., 1985, Vol. 109: pp. 257-261. The arterial pressures are measured as a function of time and comparatively between treated groups and control groups (excipient alone). The compounds are administered intravenously or orally, 5 min or 2 h, respectively, before the injection of LPS.

[4] = tested on: perfused mesenteric venous network of rats; assay: Contraction of the perfused mesenteric venous network of rats; format: cell-based; conditions: rat perfused mesenteric venous network, depolarizing hyperpotassic conditions; read-out: ED50 (contraction)
Procedure: (§3) The contractile effects are also measured in vitro under dynamic flow conditions, by the pressure developed by the vascular beds that are perfused at a constant flow rate. At the mesenteric level, the selective effect on veins is studied using the model of a double simultaneous and separate infusion of the arterial and venous networks model developed by T. Warner (British J. Pharmacol., 1990, Vol. 99, pp. 427-433). The separation of the two networks is achieved by cutting the vessels and the tissues along the intestinal border. The networks are perfused at 2 mL.min^-1 with a Krebs solution (37.5° C.), which is aerated using 95% O2 and 5% CO2. In vivo, the arterial and venous pressures are measured in the anesthetized animal, under basal conditions and after circulatory arrest caused by the swelling of a balloon catheter introduced at the level of the left atrium. During the cardiac arrest, the venous tone (average circulatory filling pressure at a constant blood volume) is calculated from the venous and arterial pressures measured at equilibrium and corrected as a function of the relative differences in compliance between these two networks (Samar & Coleman, Am. J. Physiol., 1978, Vol. 234: pp. H94-100; Yamamoto et al., Am. J. Physiol., 1980, Vol. 238: pp. H823-828).

[5] = tested on: capillary resistance of rats; assay: Capillary resistance of rats after oral administration (petechial index); format: in vivo, rat (Wistar); conditions: rat
Procedure: The increase in the capillary resistance is evaluated by the modification of the petechial index (negative pressure inducing the extravasation of the erythrocytes), measured by a method derived from the angiosterrometer of Parrot.
The studies are carried out on male Wistar rats with an average weight of 200 g (approximate age six weeks). The bottom area of the back is shorn, then the hair is pulled by means of a paste based on a derivative of thioglycolic acid and calcium hydroxide. After approximately 30 min, the skin is abundantly rinsed and dried.
On the day of the study, the rats are maintained without constraint. A low pressure of 80 mm of mercury is applied. If the petechiae (extravasation of erythrocytes) have not appeared within 15 sec, the low pressure is increased as a countermeasure, keeping the suction cap at the same place.
The minimum low pressure where petechias appear, in mm of mercury, expresses the basal capillary resistance (before any treatment). Two measurements are made for each test at different sites on of the back.
The rats are treated by the oral route. […] All the measurements are done in the blind mode.
A percentage of variation in the capillary resistances of the animals treated compared to their basal capillary resistance is calculated for each compound studied, at each treatment time and compared with the control group (excipient only) or the reference group.

[6] = tested on: saphenous vein in rabbits; assay: Potentiation of the contractile response of the rabbit saphenous vein to electrical stimulation; format: cell-based; conditions: Oryctolagus cuniculus, read-out: increase of contractile response due to electrical stimulation
Procedure: as §1, §2

[7] = tested on: arterial pressure of the anesthetized rat; assay: Arterial pressure of the anesthetized rat; format: in vivo; conditions: i.v. bolus at least up to 28 mg/kg
Procedure: as §3

Q: O=C1c2ccccc2C(=O)c2sc(-c3ccco3)nc21 [Example n, 4,9-Dihydro-4,9-dioxo-2-(2-furyl)-naphtho[2,3-d]thiazole] was tested. Which EC50 [1] did it give?
A: 50 nM

Q: And the “contractile response due to serotonin” value [2]?
A: selectively potentiates

Q: What about the “increase of average arterial pressure” value [3] of the same compound?
A: 20 mm of mercury

Q: What about the EC50 [4] of the same compound?
A: 300 nM

Q: And the “correlation of duration of action with plasma concentrations” value [5]?
A: correlates with its measured plasma concentrations

Q: And the “dose dependence of oral effect on capillary resistance” value [5]?
A: dose dependent over a broad range of doses

Q: What about the “duration of action on capillary resistance” value [5] of the same compound?
A: at least 6 h

Q: What about the “Increase of capillary resistance, effects after 4 h” value ([5]; 0.1 mg/kg, 4 h, * granulometry: 0.5-0.6 mm) of the same compound?
A: 45 % of the control

Q: What about the “Increase of capillary resistance, effect after 6 h” value ([5]; 0.1 mg/kg, 6 h, * granulometry: 0.5-0.6 mm) of the same compound?
A: 45 % of the control

Q: What about the activation at 0.3 µM [6] of the same compound?
A: 200%

Q: And the arterial pressure [7]?
A: does not affect the arterial pressure
